Experimental data taken from patent publication US20090227671A1, “Prevention and treatment of atherosclerosis with lithospermate B” (Industry-Academic Cooperation Foundation, priority 2005, published 2009).

Legend:
[1] = tested on: vascular smooth muscle cells; test: VSMC proliferation induced by PDGF-BB (LDH and MTT assays); format: cell-based, Sprague-Dawley rats; conditions: LAB 1, 5, 10, 20, 30 μM pretreatment, PDGF-BB 24 hrs; LDH and MTT assays
Text: Vascular smooth muscle cells ('VSMC' hereinafter) were separated from thoracic aorta of a Sprague-Dawley weighted about 100-150 g by using collagenase digestion method and then cultured them according to the method disclosed in previous studies [[…], et al. Role of p44/p42 MAP kinase in the age-dependent increase in vascular smooth muscle cell proliferation and neointimal formation. Arterioscler Thromb Vasc Biol. Feb. 1 2003; 23(2):204-210.; Hamaguchi A, Kim S, Izumi Y, et al. Contribution of extracellular signal-regulated kinase to angiotensin II-induced transforming growth factor-beta1 expression in vascular smooth muscle cells. Hypertension. July 1999; 34(1):126-131]. […] The VSMC was treated in a culture medium not containing serum for 24 hrs prior to treatment with PDGF-BB, and the reaction according to the presence or absence of PDGF-BB was analyzed after pretreating with LAB or other reagents. […] The cells were then washed twice with PBS, lysed by using 0.5% Triton-X100, and then the activity of lactate dehydronase (LDH) was measured by using CytoTox-ONETM assay kit (Promega, Madison, Wis., USA) with fluorescence at […]. […]

[2] = tested on: intracellular reactive oxygen species; test: Intracellular reactive oxygen species in VSMC (DCF fluorescence); format: cell-based, Sprague-Dawley rats; conditions: LAB pretreatment 1 hr
Description: The amount of reactive oxygen species in cells was measured as described in the previous report [Hamaguchi A, Kim S, Izumi Y, et al. Contribution of extracellular signal-regulated kinase to angiotensin II-induced transforming growth factor-beta1 expression in vascular smooth muscle cells. Hypertension. July 1999; 34(1):126-131]. VSMC was cultured in a culture medium without serum for 24 hrs to stop cell proliferation and then pretreated with LAB with various concentrations of 1, 5, 10, 20, 30 μM for 1 hr. The cells were treated with either 10 ng/mL of PDGF-BB for 10 min or with 100 μM H2O2 for 1 min and then cultured in the presence of 5-(and-6)-chloromethyl-2′,7′-dichlorohydrofluorescein diacetate(CM-H2DCF-DA: Molecular Probes Inc., Eurogene, Oreg., USA) in the dark room for 10 min and cultured cells and generation of reactive oxygen species were observed by using fluorescent microscope.
First, the amount of intracellular reactive oxygen species generated by PDGF-BB was measured by using peroxide-sensitive fluorophore DCF. As shown in FIG. 3A (B-1), the amount of intracellular reactive oxygen species generated by PDGF-BB evaluated with DCF fluorescence was 2.7 times greater. […] In this experiment, LAB was treated with PDGF-BB for 10 min. When LAB was pretreated, the amount of DCF fluorescence was decreased as compared to when it was treated only with PDGF-BB [FIG. 3A(A)]. […] Further, LAB decreased the activity of hydrogen peroxide, which increases the generation of intracellular reactive oxygen species, in proportion to its concentration (FIG. 3A(C)).

**Q.** Which results are given for `O=C(/C=C/c1ccc(O)c2c1[C@H](C(=O)O[C@H](Cc1ccc(O)c(O)c1)C(=O)[O-])[C@@H](c1ccc(O)c(O)c1)O2)O[C@H](Cc1ccc(O)c(O)c1)C(=O)[O-].[Mg+2]` [LAB, lithospermate B]?
**A.** VSMC proliferation induced by PDGF-BB [1]: decreased in proportion to the concentration; amount of intracellular reactive oxygen species generated by PDGF-BB ([2]; 10 ng/mL PDGF-BB 10 min): decreased in proportion to the concentration; intracellular reactive oxygen species induced by hydrogen peroxide ([2]; 100 μM H2O2 1 min): decreased
